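Interpolation was linear, between the two tested concentrations surrounding the appropriate level; five concentrations were tested over 48 hours in 96-well plates. Abbreviation: GI50, concentration required for 50% inhibition of growth. Definition used: TGI = concentration required for complete inhibition of growth.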
Key:
Test in all cases: NCI tumour cell line growth inhibition, 48 h
786-0 renal = tested on: 786-0 renal
A498 renal = tested on: A498 renal
A549 NSCLC = tested on: A549 NSCLC
ACHN renal = tested on: ACHN renal
BT-549 breast = tested on: BT-549 breast
CAKI-1 renal = tested on: CAKI-1 renal
CCRF-CEM leukemia = tested on: CCRF-CEM leukemia
COLO 205 colon = tested on: COLO 205 colon
DU-145 prostate = tested on: DU-145 prostate
EKVX NSCLC = tested on: EKVX NSCLC
HCC-2998 colon = tested on: HCC-2998 colon
HCT-116 colon = tested on: HCT-116 colon
HCT-15 colon = tested on: HCT-15 colon
HL-60(TB) leukemia = tested on: HL-60(TB) leukemia
HOP-62 NSCLC = tested on: HOP-62 NSCLC
HOP-92 NSCLC = tested on: HOP-92 NSCLC
HS 578T breast = tested on: HS 578T breast
HT29 colon = tested on: HT29 colon
IGROV1 ovarian = tested on: IGROV1 ovarian
K-562 leukemia = tested on: K-562 leukemia
KM12 colon = tested on: KM12 colon
LOX IMVI melanoma = tested on: LOX IMVI melanoma
M14 melanoma = tested on: M14 melanoma
MALME-3M melanoma = tested on: MALME-3M melanoma
MCF7 breast = tested on: MCF7 breast
MDA-MB-231 breast = tested on: MDA-MB-231 breast
MDA-MB-435 = tested on: MDA-MB-435
MDA-MB-468 breast = tested on: MDA-MB-468 breast
MOLT-4 leukemia = tested on: MOLT-4 leukemia
NCI-H226 lung = tested on: NCI-H226 lung
NCI-H23 lung = tested on: NCI-H23 lung
NCI-H460 lung = tested on: NCI-H460 lung
NCI-H522 lung = tested on: NCI-H522 lung
OVCAR-3 ovarian = tested on: OVCAR-3 ovarian
OVCAR-4 ovarian = tested on: OVCAR-4 ovarian
OVCAR-5 ovarian = tested on: OVCAR-5 ovarian
OVCAR-8 ovarian = tested on: OVCAR-8 ovarian
PC-3 prostate = tested on: PC-3 prostate
RPMI-8226 leukemia = tested on: RPMI-8226 leukemia
RXF 393 renal = tested on: RXF 393 renal
SF-268 CNS = tested on: SF-268 CNS
SF-295 CNS = tested on: SF-295 CNS
SF-539 CNS = tested on: SF-539 CNS
SK-MEL-2 melanoma = tested on: SK-MEL-2 melanoma
SK-MEL-28 melanoma = tested on: SK-MEL-28 melanoma
SK-MEL-5 melanoma = tested on: SK-MEL-5 melanoma
SK-OV-3 ovarian = tested on: SK-OV-3 ovarian
SN12C renal = tested on: SN12C renal
SNB-19 CNS = tested on: SNB-19 CNS
SR leukemia = tested on: SR leukemia
SW-620 colon = tested on: SW-620 colon
T-47D breast = tested on: T-47D breast
TK-10 renal = tested on: TK-10 renal
U251 CNS = tested on: U251 CNS
UACC-257 melanoma = tested on: UACC-257 melanoma
UACC-62 melanoma = tested on: UACC-62 melanoma
UO-31 renal = tested on: UO-31 renal

SMILES: Cn1cc(-c2cc(N)n3nc(-c4c[nH]c5ccc(F)cc45)cc3n2)c2cccnc21
- GI50 (786-0 renal): 1.64 µM
- TGI (786-0 renal): 3.11 µM
- GI50 (A498 renal): 17 µM
- TGI (A498 renal): 30.9 µM
- GI50 (A549 NSCLC): 2.48 µM
- TGI (A549 NSCLC): 7.91 µM
- GI50 (ACHN renal): 1.71 µM
- TGI (ACHN renal): 3.23 µM
- GI50 (BT-549 breast): 12.8 µM
- TGI (BT-549 breast): 28.1 µM
- GI50 (CAKI-1 renal): 2.21 µM
- TGI (CAKI-1 renal): 6.42 µM
- GI50 (CCRF-CEM leukemia): 2.35 µM
- TGI (CCRF-CEM leukemia): 7.74 µM
- GI50 (COLO 205 colon): 1.78 µM
- TGI (COLO 205 colon): 3.46 µM
- GI50 (DU-145 prostate): 2.06 µM
- TGI (DU-145 prostate): 4.4 µM
- GI50 (EKVX NSCLC): 3.47 µM
- TGI (EKVX NSCLC): 14.9 µM
- GI50 (HCC-2998 colon): 1.79 µM
- TGI (HCC-2998 colon): 3.33 µM
- GI50 (HCT-116 colon): 1.9 µM
- TGI (HCT-116 colon): 3.6 µM
- GI50 (HCT-15 colon): 1.82 µM
- TGI (HCT-15 colon): 4.14 µM
- GI50 (HL-60(TB) leukemia): 1.9 µM
- TGI (HL-60(TB) leukemia): 4.71 µM
- GI50 (HOP-62 NSCLC): 8.69 µM
- TGI (HOP-62 NSCLC): 21.2 µM
- GI50 (HOP-92 NSCLC): 14.2 µM
- TGI (HOP-92 NSCLC): 39 µM
- GI50 (HS 578T breast): 16.9 µM
- TGI (HS 578T breast): 54.2 µM
- GI50 (HT29 colon): 1.91 µM
- TGI (HT29 colon): 3.85 µM
- GI50 (IGROV1 ovarian): 2.24 µM
- TGI (IGROV1 ovarian): 5.39 µM
- GI50 (K-562 leukemia): 3.42 µM
- TGI (K-562 leukemia): 28.3 µM
- GI50 (KM12 colon): 2.5 µM
- TGI (KM12 colon): 6.26 µM
- GI50 (LOX IMVI melanoma): 1.8 µM
- TGI (LOX IMVI melanoma): 3.29 µM
- GI50 (M14 melanoma): 1.88 µM
- TGI (M14 melanoma): 4.01 µM
- GI50 (MALME-3M melanoma): 1.75 µM
- TGI (MALME-3M melanoma): 3.59 µM
- GI50 (MCF7 breast): 2.01 µM
- TGI (MCF7 breast): 4.19 µM
- GI50 (MDA-MB-231 breast): 1.92 µM
- TGI (MDA-MB-231 breast): 3.7 µM
- GI50 (MDA-MB-435): 1.92 µM
- TGI (MDA-MB-435): 4.18 µM
- GI50 (MDA-MB-468 breast): 1.66 µM
- TGI (MDA-MB-468 breast): 3.27 µM
- GI50 (MOLT-4 leukemia): 2.42 µM
- TGI (MOLT-4 leukemia): 7.73 µM
- GI50 (NCI-H226 lung): 1.92 µM
- TGI (NCI-H226 lung): 4 µM
- GI50 (NCI-H23 lung): 2.52 µM
- TGI (NCI-H23 lung): 7.67 µM
- GI50 (NCI-H460 lung): 1.8 µM
- TGI (NCI-H460 lung): 3.61 µM
- GI50 (NCI-H522 lung): 13.8 µM
- TGI (NCI-H522 lung): 27.4 µM
- GI50 (OVCAR-3 ovarian): 1.82 µM
- TGI (OVCAR-3 ovarian): 3.69 µM
- GI50 (OVCAR-4 ovarian): 11.6 µM
- TGI (OVCAR-4 ovarian): 30 µM
- GI50 (OVCAR-5 ovarian): 3.33 µM
- TGI (OVCAR-5 ovarian): 13.4 µM
- GI50 (OVCAR-8 ovarian): 3.18 µM
- TGI (OVCAR-8 ovarian): 11 µM
- GI50 (PC-3 prostate): 3.26 µM
- TGI (PC-3 prostate): 13.4 µM
- GI50 (RPMI-8226 leukemia): 2.43 µM
- TGI (RPMI-8226 leukemia): 7.74 µM
- GI50 (RXF 393 renal): 1.77 µM
- TGI (RXF 393 renal): 3.35 µM
- GI50 (SF-268 CNS): 11.6 µM
- TGI (SF-268 CNS): 39.6 µM
- GI50 (SF-295 CNS): 1.69 µM
- TGI (SF-295 CNS): 3.17 µM
- GI50 (SF-539 CNS): 1.78 µM
- TGI (SF-539 CNS): 3.25 µM
- GI50 (SK-MEL-2 melanoma): 12.6 µM
- TGI (SK-MEL-2 melanoma): 25.2 µM
- GI50 (SK-MEL-28 melanoma): 1.7 µM
- TGI (SK-MEL-28 melanoma): 3.17 µM
- GI50 (SK-MEL-5 melanoma): 11.6 µM
- TGI (SK-MEL-5 melanoma): 24.1 µM
- GI50 (SK-OV-3 ovarian): 18.1 µM
- TGI (SK-OV-3 ovarian): 39.2 µM
- GI50 (SN12C renal): 13.1 µM
- TGI (SN12C renal): 26.2 µM
- GI50 (SNB-19 CNS): 4.05 µM
- TGI (SNB-19 CNS): 16.2 µM
- GI50 (SR leukemia): 2.8 µM
- TGI (SR leukemia): > 100 µM
- GI50 (SW-620 colon): 1.83 µM
- TGI (SW-620 colon): 3.78 µM
- GI50 (T-47D breast): 2.9 µM
- TGI (T-47D breast): 13.2 µM
- GI50 (TK-10 renal): 2.95 µM
- TGI (TK-10 renal): 11.1 µM
- GI50 (U251 CNS): 2 µM
- TGI (U251 CNS): 4.1 µM
- GI50 (UACC-257 melanoma): 14.8 µM
- TGI (UACC-257 melanoma): 28 µM
- GI50 (UACC-62 melanoma): 1.77 µM
- TGI (UACC-62 melanoma): 3.34 µM
- GI50 (UO-31 renal): 1.66 µM
- TGI (UO-31 renal): 3.24 µM
